Measured values taken from patent publication US7910594B2 (priority 2002, dated 2011).
Values joined by “and” are separate entries in the source; they are usually repeats but may differ in a detail not shown here. Identical values can stand only once.

Experiments:
[1] = system: Folate receptor-negative 4T-1 tumor; experiment: in vivo activity on folate receptor-negative tumor; parameters: species or system mice (female Balb/C strain); settings: i.p. qd×30 from day 4 post tumor inoculation; FIG. 12
Method: Six to seven week-old mice (female Balb/C strain) were obtained from Harlan, Inc., Indianapolis, Ind. The mice were maintained on Harlan's folate-free chow for a total of three weeks prior to the onset of and during this experiment. Folate receptor-negative 4T-1 tumor cells (1×10^6 cells per animal) were inoculated in the subcutis of the right axilla. The formulations indicated in FIG. 12 were dosed intraperitoneally qd×30 starting on day 4 post tumor inoculation, and tumor volume as well as animal survival were monitored daily. EC72 had no activity against a subcutaneous folate-receptor-negative 4T-1 tumor.

FR-positive KB cells = experiment: in vitro dose response, 3H-thymidine incorporation (DNA synthesis); type: cell-based; settings: 0.1 mM folic acid (competitor)
Method: KB cells were seeded in 12-well Falcon plates and allowed to form near-confluent monolayers overnight. Following one rinse with 1 mL of fresh FFRPMI/HIFCS, each well received 0.5 mL of FFRPMI/HIFCS containing increasing concentrations of EC72 in the presence of absence of 0.1 mM folic acid (competitor). Cells were incubated for 15 min at 37° C. and then rinsed four times with 0.5 mL of FFRPMI/HIFCS. 0.5 mL of fresh FFRPMI/HIFCS was then added to each well, and cells were chased for a total of 72 h at 37° C. Two hours before the end of the incubation, media was replaced in each well with 0.5 mL FFRPMI/HIFCS containing 5 μCi of ^3H-thymidine. Monolayers were then washed 3 times with 0.5 mL of PBS and then precipitated with 1 ml of 10% cold trichloroacetic acid. The trichloroacetic acid solution was collected and discarded, and precipitated material was sequentially dissolved in 0.5 mL 0.25 N NaOH and 1% sodium dodecyl sulfate for 15 min at room temperature. Samples were then counted for radioactivity using a Packard gamma counter. Final tabulated values were expressed as a percentage of radioactivity incorporated into untreated cell samples.

subcutaneous M109 tumors [2] = experiment: survival of mice bearing subcutaneous M109 tumors, delayed start of EC72 treatment; type: in vivo, Balb/c mice; settings: for Median Survival: EC72 1800 nmol/kg i.v. qd×5 for 4 weeks
Method: The protocol described in Example 4 was followed except that mice were injected i.v. throughout the treatment period and were treated with EC72 for 4 weeks. Balb/c mice (n=5) were injected subcutaneously in the subcutis of the right axilla with 1×10^6 M109 cells and were treated qd×5 for 4 weeks with 1800 nmol/kg of EC72. EC72 was administered i.v. beginning on the designated day post tumor cell inoculation (PTI; see Table 3). Animal survival was monitored daily, and mice showing a complete response were those that were tumor-free at day 60 PTI.

[3] = system: Folate receptor-positive M109 P0 tumor cells; experiment: in vivo dose response, intraperitoneal M109 tumor; parameters: species or system mice (female Balb/C strain)
Method: Six to seven week-old mice (female Balb/C strain) were obtained from Harlan, Inc., Indianapolis, Ind. The mice were maintained on Harlan's folate-free chow for a total of three weeks prior to the onset of and during this experiment. Folate receptor-positive M109 P0 tumor cells (0.5×10^6 cells per animal) were inoculated in the upper peritoneal cavity 4 days prior to the onset of dosing. The formulations indicated in FIG. 11 were dosed intraperitoneally qd×30 starting on day 4 post tumor inoculation, and animal survival was monitored daily.

[4] = for myelosuppression / kidney damage: M109 tumor-bearing mice, daily i.p. treatment
Method: (§1) The effectiveness of EC72 for promoting survival of tumor-bearing mice was evaluated in vivo using M109 tumor-bearing Balb/c mice. There were two goals of this study: i) to determine if daily intraperitoneal treatment with EC72 could prolong the lives of folate receptor-positive tumor-bearing mice beyond what mitomycin C could do when tested under an identical dosing regimen, and ii) to examine the pathological effects of EC72 treatment on normal tissues, including kidney tissue which is folate receptor-positive tissue. Although most normal tissues contain very low levels of folate receptor, the proximal tubules of the kidney express appreciable numbers of folate receptors. Thus, the in vivo evaluation of EC72 also enabled evaluation of the extent of kidney-specific damage caused by the systemic administration of folate-mitomycin conjugates.
Major organs were also collected in both the EC72 and mitomycin C-treated animals (following euthanasia), and they were sent to an independent pathologist for examination.

[5] = system: folate receptor-positive KB cells; experiment: in vitro cytotoxicity assay (bromodeoxyuridine-based ELISA); type: cell-based
Method: A compound denominated as EC72 (see scheme 1) was evaluated using an in vitro cytotoxicity assay that predicts the ability of the drug to inhibit the growth of folate receptor-positive KB cells. This compound comprises a folate analog linked to mitomycin C prepared according to the protocol depicted in scheme 2. The KB cells were exposed for 15 minutes at 37° C. to the indicated concentrations of EC72, free mitomyicn C (drug #1), or to EC72 and at least a 100-fold excess of folic acid. The cells were then rinsed once with fresh culture medium and incubated in fresh culture medium for 72 hours at 37° C. Cell viability was assessed using a bromodeoxyuridine-based ELISA assay.

subcutaneous M109 tumors [6] = experiment: growth of subcutaneous M109 tumors, EC72 i.v. then i.p.; type: in vivo, Balb/c mice; settings: 1800 nmoles/kg qd×5 for six weeks from day 4, i.v. (12 injections) then i.p.; FIG. 4
Method: The anti-tumor activity of EC72 when administered intravenously (i.v.) to tumor-bearing animals, was evaluated in Balb/c mice bearing subcutaneous M109 tumors. Thus, a protocol similar to that described in Example 3 was followed except that the compounds were administered i.v. (described below) and the tumors were subcutaneous. Four days post tumor inoculation in the subcutis of the right axilla, mice were injected i.v. qd×5 for six weeks with 1800 nmoles/kg of EC72.
Tumor growth was determined at 2-day intervals in each treatment group until the tumors grew to at least 1500 mm3. The tail veins became excessively bruised and inaccessible after 12 i.v. injections so dosing was continued i.p. following the same qd×5 schedule. […] Thus, EC72 may not have reached the distal subcutaneous tumor efficiently following i.p. administration of EC72, a limitation not encountered when EC72 was administered i.v. during the initial phase of the therapy.

M109 tumor = experiment: survival of intraperitoneal M109 tumor-bearing mice; type: in vivo, Balb/c mice; settings: for increase in lifespan (ILS): 1800 mmoles/kg i.p. once daily beginning on day 5 after tumor cell inoculation, FIG. 2
Method: as §1
Balb/c mice (5 mice/group) were given an intraperitoneal injection with 1×10^6 M109 cells. The mice were then given an intraperitoneal injection once daily with […]/kg of EC72 or mitomycin C (control mice were injected with PBS) beginning on day 5 after tumor cell innoculation (ILS=increased life span (i.e., median survival time)).
Thus, a group of animals were given intraperitoneal injections of EC72 plus a 10-fold excess of free folic acid.

[7] = target: T1, folate receptors (FRs) on KB cells (Homo sapiens, UniProt P15328); experiment: relative affinity assay (3H-folic acid displacement); type: binding; settings: 100 nM 3H-folic acid, 15 min on ice, folic acid set to 1, FIG. 9
T1 construct: FR-positive KB cells were gently trypsinized; endogenous in cells; host or cells: KB cells
Method: The affinity of EC72 for folate receptors (FRs) relative to folate was determined according to a previously described method (Westerhof, G. R., J. H. Schomagel, et al. (1995) Mol. Pharm. 48: 459-471) with slight modification. Briefly, FR-positive KB cells were gently trypsinized in 0.25% trypsin in phosphate-buffered saline (PBS) at room temperature for 3 minutes and then diluted in folate-free RPMI (FFRPMI) containing 10% heat-inactivated fetal calf serum (HIFCS). Following a 5 min 800×g spin and one PBS wash, the final cell pellet was suspended in FFRPMI 1640 (no serum). Cells were incubated for 15 min on ice with 100 nM ^3H-folic acid in the absence and presence of increasing concentrations of EC72 or folate. Samples were centrifuged at 10,000×g for 5 min, and then the cell pellets were suspended in buffer, transferred to individual vials containing 5 mL of scintillation cocktail, and then counted for radioactivity. Negative control tubes contained only the ^3H-folic acid in FFRPMI (no competitor). Positive control tubes contained a final concentration of 1 mM folic acid, and CPMs measured in these samples (representing non-specific binding of label) were subtracted from all samples.

subcutaneous M109 tumors [8] = experiment: subcutaneous M109 tumors treated with TAXOL with or without EC72; type: in vivo, Balb/c mice
Method: The protocol described in Example 5 was followed except that animals were injected i.v. at the beginning of the treatment period and were injected i.p. later in the treatment period.
Tumor volumes were calculated using the equation V=a×b^2/2, where “a” is the length of the tumor and “b” is the width expressed in millimeters. The tumors were measured using calipers.

[9] = toxicity of TAXOL / EC72 regimens (weight loss, blood chemistry, tissue pathology); type: in vivo, Balb/c mice; parameters: key to Liver: mice with Degeneration / Liver: grade of Degeneration: “0.5” = Occasionally present; “1” = Mild; “2” = Moderate; “3” = Marked
Source text: The toxicity of each tested regimen was also monitored by measuring weight loss, blood chemistry, and tissue pathology.

[10] = Taxol 15 mg/kg with EC72 0 or 1800 nmol/kg, 6 mice/cohort
[11] = Taxol 15 mg/kg with EC72 0 or 1800 nmol/kg, 6 mice/cohort, listed as Taxol
[12] = tissue pathology, TAXOL 15 mg/kg, n = 6 mice

T1 sequence (P15328 25-234): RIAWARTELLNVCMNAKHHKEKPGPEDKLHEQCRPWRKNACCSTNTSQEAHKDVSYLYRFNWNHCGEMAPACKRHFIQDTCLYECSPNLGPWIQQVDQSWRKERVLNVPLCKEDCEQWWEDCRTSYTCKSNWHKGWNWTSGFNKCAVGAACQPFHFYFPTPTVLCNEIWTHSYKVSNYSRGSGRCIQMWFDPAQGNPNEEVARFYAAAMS

CO[C@@]12[C@H](COC(N)=O)C3=C(C(=O)C(C)=C(NCCSSC[C@H](NC(=O)CC[C@H](NC(=O)c4ccc(NCc5cnc6nc(N)[nH]c(=O)c6n5)cc4)C(=O)O)C(=O)O)C3=O)N1C[C@@H]1N[C@@H]12 [EC72]
activity against subcutaneous folate-receptor-negative 4T-1 tumor [1]: no activity | DNA synthesis inhibition in the presence of excess free folic acid (FR-positive KB cells): effectively blocked any DNA synthesis inhibition | Median Survival (subcutaneous M109 tumors [2]; initiation PTI 1): 56 days | Median Survival (subcutaneous M109 tumors [2]; initiation PTI 3): 54 days | Median Survival (subcutaneous M109 tumors [2]; initiation PTI 7): 28 days | Median Survival (subcutaneous M109 tumors [2]; initiation PTI 12): 26 days | anti-tumor response of EC72 alone (subcutaneous M109 tumors [2]; EC72 treatment initiated 12 days PTI, subcutaneous tumor model): failed to produce an anti-tumor response | % ILS (subcutaneous M109 tumors [2]; initiation PTI 1): 133% | Complete Responses (tumor-free at day 60 PTI) (subcutaneous M109 tumors [2]; initiation PTI 1, n = 5): 2 of 5 and 2 | Partial Responses (subcutaneous M109 tumors [2]; initiation PTI 1, n = 5): 3 of 5 and 3 | % ILS (subcutaneous M109 tumors [2]; initiation PTI 3): 125% | Complete Responses (tumor-free at day 60 PTI) (subcutaneous M109 tumors [2]; initiation PTI 3, n = 5): 0 | Partial Responses (subcutaneous M109 tumors [2]; initiation PTI 3, n = 5): 5 | % ILS (subcutaneous M109 tumors [2]; initiation PTI 7): 17% | Complete Responses (tumor-free at day 60 PTI) (subcutaneous M109 tumors [2]; initiation PTI 7, n = 5): 0 | Partial Responses (subcutaneous M109 tumors [2]; initiation PTI 7, n = 5): 5 | % ILS (subcutaneous M109 tumors [2]; initiation PTI 12): 8% | Complete Responses (tumor-free at day 60 PTI) (subcutaneous M109 tumors [2]; initiation PTI 12, n = 5): 0 of 5 and 0 | Partial Responses (subcutaneous M109 tumors [2]; initiation PTI 12, n = 5): 5 | animals showing a complete response ([3]; 1800 nmol/kg i.p. qd×30): 1 of 4 | increase in lifespan ([3]; 1800 nmol/kg i.p. qd×30 from day 4 post tumor inoculation): 240% | dose dependence of activity in M109 tumor-bearing mice ([3]; 100, 400, 1800 nmol/kg i.p. qd×30 from day 4, FIG. 11): dose-dependent activity | myelosuppression / kidney damage [4]: no evidence of myelosuppression or kidney damage | blood-urea-nitrogen and creatine levels ([4]; following 30 consecutive daily injections): normal | cytotoxicity compared with free mitomycin C ([5]; 15 minutes exposure at 37° C., 72 hours chase, FIG. 1): equal to that of free mitomycin C | cytotoxicity in the presence of excess free folic acid ([5]; at least a 100-fold excess of folic acid): blocked | effect on growth of subcutaneous M109 tumor (subcutaneous M109 tumors [6]): effective in delaying the growth of the M109 tumor | increase in lifespan (ILS) (M109 tumor): 178% | animals tumor-free by day 70 post tumor cell inoculation (M109 tumor; 30 daily i.p. injections): 1 of 4 | outcome of group coinjected with folic acid (M109 tumor; EC72 plus a 10-fold excess of free folic acid): all mice in this group eventually died from the tumor burden | relative affinity for the folate receptor [7]: 0.59

CC(=O)O[C@H]1C(=O)[C@@]2(C)[C@H]([C@H](OC(=O)c3ccccc3)[C@]3(O)C[C@H](OC(=O)[C@H](O)[C@@H](NC(=O)c4ccccc4)c4ccccc4)C(C)=C1C3(C)C)[C@]1(OC(C)=O)CO[C@@H]1C[C@@H]2O [TAXOL®, paclitaxel]
day PTI until which tumors failed to grow (subcutaneous M109 tumors [8]; TAXOL 15 mg/kg, from day 12 PTI): 21 day PTI | log cell kill (LCK) (subcutaneous M109 tumors [8]; TAXOL 20 mg/kg i.v. with or without EC72 1800 nmol/kg qd×5 for 4 weeks, from day 12 PTI, FIG. 7): 1.3 | day PTI until which tumors failed to grow (subcutaneous M109 tumors [8]; TAXOL 20 mg/kg, from day 12 PTI): 29 day PTI | long term survivors (subcutaneous M109 tumors [8]; TAXOL 20 mg/kg, n=5): none of the 5 mice | CR (complete response) (subcutaneous M109 tumors [8]; [10]): 2 of the 6 | NR (no response) (subcutaneous M109 tumors [8]; [10]): 0 | PR (partial response) (subcutaneous M109 tumors [8]; [10]): 4 of the 6 | CR (complete response) (subcutaneous M109 tumors [8]; [11]): 2 | PR (partial response) (subcutaneous M109 tumors [8]; [11]): 4 | Log Cell Kill (LCK) (subcutaneous M109 tumors [8]; Taxol 15 mg/kg with EC72 0 or 1800 nmol/kg, from day 12 PTI, 6 mice/cohort, FIG. 8): 0.6 | appearance and body weight during dosing ([9]; TAXOL 20 mg/kg with or without EC72 1800 nmol/kg): appeared sick, experienced weight loss | Bone: mice Normal [9, 12]: 6 | Heart: mice Normal [9, 12]: 6 | Kidney: mice Normal [9, 12]: 6 | Liver: mice Normal [9, 12]: 5 | Spleen: mice Normal [9, 12]: 6 | Liver: grade of Degeneration ([9]; tissue pathology, grade in brackets): 1(1) | Liver: mice with Degeneration ([9]; tissue pathology, number before the bracket, n = 6 mice): 1(1)

CO[C@@]12[C@H](COC(N)=O)C3=C(C(=O)C(C)=C(N)C3=O)N1C[C@@H]1N[C@@H]12 [mitomycin C, reference compound]
myelosuppression / kidney damage [4]: extensive myelosuppression | cause of death of treated animals ([4]; mouse, in vivo, ip): died from apparent mitomycin C-related side effects | increase in lifespan (ILS) (M109 tumor): 39% | increased life span (median survival time) over PBS control group (M109 tumor; repeat experiment, 30 daily i.p. injections, FIG. 3): ~25%
